Source: publication PMC9897788, “Design, synthesis and cytotoxic evaluation of novel bis-thiazole derivatives as preferential Pim1 kinase inhibitors with in vivo and in silico study” (Journal of Enzyme Inhibition and Medicinal Chemistry, 2023)
Entries after “also recorded” stand apart in the source; their conditions may differ.

Legend:
Ehrlich solid carcinoma = assay: In vivo cytotoxicity study, Ehrlich solid carcinoma model; parameters: species or system male Swiss albino mice; settings: i.p. once weekly for 3 weeks; for Histopathological examination of Ehrlich solid tumour (H&E): mice; for TNF-α level (ELISA) / malondialdehyde (MDA) level (ELISA): serum, Ehrlich solid tumour mice
Protocol: The National Cancer Institute (Cairo, Egypt) provided the 48 male Swiss albino mice utilised in this study, which ranged in weight from 25 to 30 g. Prior to the experiment, mice were given a week to settle into their new environment. A constant 23 °C temperature, 60% humidity, and a 12/12 light/dark cycle were maintained in stainless steel cages. Each cage housed five mice with a plenty of nourishing food and refreshing water were served. This in vivo study was approved from the ethical committee of the Azhar University, Faculty of Medicine, Egypt.
A female mouse with an 8-day-old ascetic tumour was obtained from the National Cancer Institute on the day of induction, and Ehrlich ascites carcinoma (EAC) cells were isolated from the ascetic fluid of the animal (day 0). Then, regular saline was used to dilute the ascetic fluid (1:10). Each mouse received a subcutaneous injection of 0.2 ml of ascetic fluid containing 2.5 × 10^6 EAC cells in the right thigh of the hind limb to induce Ehrlich solid-phase cancer.
On day 11 following ESC inoculation, tumour formation was observed as a solid mass expanding in the right thigh of each animal. The mice were then randomly divided into four groups (n = 6) • Group (1) acted as the […] control group and mice received an i.p. DMSO (2 mg/kg/once weekly) for 3 weeks. • Group (2) (Doxorubicin Group) mice received an i.p. dose of doxorubicin (2 mg/kg/once weekly) for 3 weeks. • Group (3) mice were given an i.p. dose of 8b compound (1 mg/kg/once weekly) for 3 weeks, • Group (4) mice were given an i.p. dose of 3b compound (1.4 mg/kg/once weekly) for 3 weeks.
Two days after the last dose of therapy, blood was drawn from the mice’s orbital canthus, and serum was separated and stored at −80 °C for upcoming biochemical investigations. Following the cervical dislocation method of euthanasia, tumour samples from each mouse were collected and preserved in neutral buffered formalin at a 10% concentration for immunohistochemistry and histopathology studies. Histological preparations were performed according to the reported method. Slices of Ehrlich tumour were cut to a thickness of 3–4 mm before being fixed in 10% neutral buffered formalin (10% NBF), dehydrated through a series of ethanol solutions, cleaned in xylene, and finally embedded in paraffin. To examine the overall tissue architecture, sections ([…]) thick were cut from paraffin blocks using a microtome and stained with haematoxylin and eosin. We used a Leica microscope (CH9435 Hee56rbrugg) to look at H&E-stained tissue sections (Leica Microsystems, Switzerland).
The avidin–biotin–peroxidase complex (ABC) method was used to do immunohistochemistry on paraffin sections that were put on positively charged slides. Rabbit Anti-VEGF Receptor 2 Polyclonal Antibody (Elabscience Cat# E-AB-63481, Dil.: 1:100) and Rabbit Monoclonal anti-caspase-3 antibody, active (cleaved) form (Sigma Aldrich Catalog # AB3623)[41], were utilised during this IHC assessment. Each group’s sections were treated with the previously specified antibodies, after which the ABC technique reagents (Vectastain ABC-HRP kit, Vector labs) were applied. To locate the antigen–antibody combination, marker expression was stained with diaminobenzidine (DAB, manufactured by Sigma) and labelled with peroxidase. In order to conduct negative controls, non-immune serum was substituted for the primary or secondary antibodies. IHC-stained sections were assessed using a Leica (CH9435 Hee56sbrugg) microscope (Leica Microsystems, Switzerland).
Using one-way analysis of variance (ANOVA) followed by Tukey’s post-hoc test, the difference between experimental groups was analysed. All data are presented as mean ± standard deviation (SD). All comparisons were judged statistically significant when the p values ≤ 0.05. ImageJ (NIH Image J system, Bethesda, MD) was used for the analysis of immunohistochemistry photos.

Pim1 kinase = target: T1, Pim1 kinase (Homo sapiens, UniProt P11309); assay: In vitro Pim1 kinase inhibition assay (ADP-Glo); assay type: biochemical; settings: n = 3
T1 construct: purchased Promega Corporation, Madison, WI
Protocol: ADP-Glo^TM kinase assay kit was used to evaluate Pim1 kinase inhibition purchased from Promega Corporation, Madison, WI. At each of the kit low-volume well, the tested compounds were dissolved in DMSO at each of the tested concentration range and 1 µL was withdrawn and mixed with 2 µL Pim1 kinase and 2 µL of substrate/ATP mix then incubated at room temperature for 60 min. 5 µL of ADP-Glo reagent was added and incubated for another 40 min at room temperature. Finally 10 µL of kinase detection reagents was added and incubated for 30 min and the luminescence was recorded. Pim1 kinase buffer was prepared by mixing 40 mM Tris at pH 7.5, 20 mM MgCl2, 0.1 mg/mL BSA and 50 µM DTT.

[1] = Calculation of the lethal dose 50 (LD50), fixed-dose approach; settings: male, Swiss albino, mouse, in vivo, ip, mice, single dose
Protocol: The LD50 of compounds 3b and 8b were determined using a fixed-dose approach; 12 male Swiss albino mice were divided into four groups (three mice per group) to calculate the LD50. […]. By giving these concentrations once to the animals and monitoring the signs of poisoning and deaths within 24 h, the lethal dose was identified. The animals were monitored continuously for the first two hours and then every four hours after that. After 24 h, all of animal deaths and survival appeared. […]. […] The dose used in the experiment was 1/10 from the LD50.

Pim2 kinase = Pim2 kinase (Homo sapiens, UniProt Q9P1W9); assay: In vitro Pim2 kinase inhibition assay (ADP-Glo); assay type: biochemical; settings: n = 3
[2] = test system: Breast MCF10A normal cell line; assay: Normal cell line cytotoxicity using MCF10a (MTT); assay type: cell-based, human; settings: 48 h; for IC50: Homo sapiens, MCF-10A; for Selectivity Index: MCF10A normal versus T47D cancer cells
Protocol: In vitro toxicology assay kit (MTT based) stock no. TOX-1 7H258 was purchased from SIGMA (St. Louis, MO). About 3 ml of the medium with the normal cell lines in log phase were added in multiwall plate without phenol red and serum. A volume of reconstituted MTT (#M-5655) equivalent to 10% of the culture medium volume was added then incubated for 2 h. The resulted fomazan crystals were dissolved with occasional shaking by equivalent volume of MTT solubilising solution (#M-8910). The final solution absorbance was measured spectrophotometry at wavelength 570 nm. Blank experiment was performed using medium only without cells.

[3] = Ehrlich solid tumour tissue, 8b 1 mg/kg, 3b 1.4 mg/kg, doxorubicin 2 mg/kg
[4] = 8b 1 mg/kg, 3b 1.4 mg/kg, doxorubicin 2 mg/kg

T1 sequence (P11309 whole entry): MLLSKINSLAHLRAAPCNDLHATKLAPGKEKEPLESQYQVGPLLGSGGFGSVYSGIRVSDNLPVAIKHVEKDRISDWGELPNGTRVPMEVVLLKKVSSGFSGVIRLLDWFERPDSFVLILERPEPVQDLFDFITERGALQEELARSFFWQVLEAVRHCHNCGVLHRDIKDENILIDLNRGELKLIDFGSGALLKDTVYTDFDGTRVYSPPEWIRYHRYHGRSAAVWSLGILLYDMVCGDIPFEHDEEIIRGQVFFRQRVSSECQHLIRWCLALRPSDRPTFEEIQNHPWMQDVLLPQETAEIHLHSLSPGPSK
Sequence of Pim2 kinase (Q9P1W9 whole entry): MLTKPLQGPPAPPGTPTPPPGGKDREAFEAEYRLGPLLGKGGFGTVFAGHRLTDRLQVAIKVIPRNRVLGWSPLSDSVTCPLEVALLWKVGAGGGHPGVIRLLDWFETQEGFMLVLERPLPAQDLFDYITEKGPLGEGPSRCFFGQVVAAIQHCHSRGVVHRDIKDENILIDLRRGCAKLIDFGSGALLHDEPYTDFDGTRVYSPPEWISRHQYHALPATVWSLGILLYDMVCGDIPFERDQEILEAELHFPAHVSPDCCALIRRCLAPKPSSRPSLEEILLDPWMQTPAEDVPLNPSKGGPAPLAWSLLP

| Compound | VEGF expression by immunohistochemistry (Ehrlich solid carcinoma; [3]) | Histopathological examination of Ehrlich solid tumour (H&E) (Ehrlich solid carcinoma; [4]) | TNF-α level (ELISA) (Ehrlich solid carcinoma) | malondialdehyde (MDA) level (ELISA) (Ehrlich solid carcinoma) | IC50 (Pim1 kinase) | LD50 at 24 h [1] | IC50 (Pim2 kinase) | IC50 [2] | Selectivity Index [2] | caspase-3 expression by immunohistochemistry (Ehrlich solid carcinoma; [3]) |
| --- | --- | --- | --- | --- | --- | --- | --- | --- | --- | --- |
| CC(=O)c1sc(Nc2cccc(Nc3nc(C)c(C(C)=O)s3)c2)nc1C [3b, 1,1’-(2,2’-(1,3-Phenylenebis(azanediyl))bis(4-methylthiazole-5,2-diyl))diethanone] | moderate to low expression of VEGF; also recorded: moderate VEGF positivity; also recorded: down-regulation of VEGF | substantial number of aggregated neoplastic cells with their typical structure were surrounded by small patches of necrotic muscle tissue; also recorded: aggregates of neoplastic cells with their typical structure that surrounded by small patches of necrotic muscle tissue | no statistical difference was detected between compounds 8b and 3b; also recorded: down-regulation of VEGF and TNF α | did not significantly vary from the untreated control group | 0.32 µM | 14 mg/kg | 6.05 µM | 105 µM | 18.25 |  |
| c1ccc(-c2csc(Nc3cccc(Nc4nc(-c5ccccc5)cs4)c3)n2)cc1 [6a, N^1,N^3-bis(4-phenylthiazol-2-yl)benzene-1,3-diamine] |  |  |  |  | 2.02 µM |  |  |  |  |  |
| Fc1ccc(-c2cs/c(=N\c3ccccc3)n2-c2cccc(-n3c(-c4ccc(F)cc4)cs/c3=N\c3ccccc3)c2)cc1 [8b, N,N’-(3,3’-(1,3-phenylene)bis(4–(4-fluorophenyl)thiazole-3(3H)-yl-2(3H)-ylidene))dianiline] | low expression of VEGF; also recorded: no appreciable VEGF immunoreactivity; also recorded: down-regulation of VEGF | minimal infiltration of neoplastic cells and a significant reduction in their quantity; also recorded: inhibited the growth of Ehrlich solid tumours in mice | no statistical significant difference between DOX and 8b; also recorded: down-regulation of VEGF and TNF α | elevation of malondialdehyde levels | 0.24 µM | 10 mg/kg | 10.5 µM | 53.3 µM | 5.44 | highest significant increment in caspase-3 expression; also recorded: significant positive expression of caspase-3; also recorded: up-regulation of caspase-3 |
| Fc1ccc(-c2csc(Nc3cccc(Nc4nc(-c5ccc(F)cc5)cs4)c3)n2)cc1 [6b, N^1,N^3-bis(4–(4-fluorophenyl)thiazol-2-yl)benzene-1,3-diamine] |  |  |  |  | 2.95 µM |  |  |  |  |  |
